Results: PubChem BioAssay AID602234 (The Scripps Research Institute Molecular Screening Center, 2012)
pIC50: −log10 of the molar value. Active and inactive are the calls of the source. The rule behind the calls is not given here.

Test: SRC3 coactivator transcriptional activity inhibitors, dose response, counter-screen for SRC1 inhibitor project, cell-based, luminescence (AID 602234);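 note: HEK293 cells co-transfected with pGL4.31 reporter and pBIND-SRC3 fusion vector; potency for inhibition of reporter luminescence with Gossypol as full inhibition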
Conditions: transfected HEK293 cells, counter-screen luciferase reporter

SMILES	pIC50	IC50
CN(C)C=Nc1c(C(=O)c2ccccc2)sc2nccc(N(C)C)c12	5.17	
CCN(Cc1ccncc1)C(=O)CC1C(=O)NCCN1Cc1ccc(F)c(F)c1 (stereo not drawn)	5.31	
Cc1nn(CC(=O)N2CCN(c3cccc(C(F)(F)F)c3)CC2)c(=O)c2cccn12	5.29	
O=C(Nc1nc(-c2ccccn2)cs1)c1cccc(-n2cnnn2)c1		21.7 µM (inactive)
Cc1cc(/C=C2\Cc3ccccc3C2=O)c(C)n1-c1ccccc1	5.06	
COc1cccc(NC(=O)CN(C)CC(=O)Nc2ccc(Cl)cc2[N+](=O)[O-])c1		17.8 µM (inactive)
COc1ccc(-n2cnc3c(sc4nccc(N(C)C)c43)c2=O)cc1		11 µM (inactive)
COc1ccccc1N(C(=O)CCl)c1cn(C(C)=O)c2ccccc12	5.42	
Cc1noc(/C=C/c2ccco2)c1S(=O)(=O)N1CCC(C(=O)Nc2ccc(Cl)cn2)CC1		11.3 µM (inactive)
COc1cc(C(=O)NC(=S)NNC(=O)c2cnccn2)cc(OC)c1OC	5.45	
O=C(CCC1CCCC1)Nc1ccc(C(=O)NCc2cccnc2)cc1		34.2 µM (inactive)
CCCCC(=O)Nc1cccn2ncnc12		10.9 µM (inactive)
COc1cc(C(=O)N/N=C(\c2ccccc2)c2ccccn2)cc(OC)c1OC	5.02	
CCc1nc(N)nc(N)c1-c1ccc(Cl)c([N+](=O)[O-])c1	6.02	
O=C(N/N=C/c1cc([N+](=O)[O-])ccc1O)c1cccc(N2CCCC2=O)c1		> 12 µM (inactive)
Cc1c(C(=O)N/N=C/C(C)C)[nH]c2ccc([N+](=O)[O-])cc12		17 µM (inactive)
CCN(c1ccccc1)S(=O)(=O)c1cc(C(=O)Nc2ccc(Br)cc2)ccc1F	5.18	
Cc1ccc2occ(/C=N/NC(=O)[C@@H](N)Cc3ccccc3)c(=O)c2c1	5.16	
COc1cc(OC)c2cc(C(=O)N/N=C/c3cccc(OC)c3O)[nH]c2c1	5.45	
Cc1nc2c(-c3ccc(F)cc3)cnn2c(N)c1-c1ccccc1		11.4 µM (inactive)
O=C(N/N=C/c1ccc(O)cc1O)/C(=C/c1ccccc1)CCO	5.27	
C=CCc1ccccc1OCC(=O)N/N=C/c1ccc(OC(C)=O)cc1OC(C)=O		22.4 µM (inactive)
CCC(C)(C)n1nnnc1CN1CCC(n2c(C)nc3cc(C(F)(F)F)ccc32)CC1		> 35.9 µM (inactive)
Nc1ccc(-c2cc3ccccc3oc2=O)cc1	5.44	
COc1ccccc1/C=C\C(=O)NCC(=O)N/N=C/c1cccc(OC)c1O		12.9 µM (inactive)
CCn1ccnc1CN(C)Cc1cn[nH]c1-c1ccc(F)cc1F	5.10	
Cc1ccc(S(=O)(=O)N2[C@@H](c3ccc(C(C)(C)C)cc3)C(C(=O)O)=CC[C@H]2c2ccc(Cl)cc2)cc1		10.4 µM (inactive)
O=C(N/N=C/c1coc2ccc(Cl)cc2c1=O)c1ccc(O)cc1	5.44	
